Data taken from patent publication JP2022046588A, “治療用組成物およびその使用” (priority 2016, dated 2017).
Like-named read-outs stand apart in the source and are kept apart here.

Experiments:
[1] = system: human colon adenocarcinoma cell line DLD-1 [ヒト結腸腺癌細胞株DLD-1]; assay: MTT cell proliferation assay, DLD-1; assay type: cell-based
[2] = system: human basal cell carcinoma cell line TE 354.T [ヒト基底細胞癌細胞株TE 354.T]; assay: MTT cell proliferation assay, TE 354.T; assay type: cell-based; settings: for inhibition at 50 µg/mL: Homo sapiens, Example 8, 50 μg/ml, 24 h
[3] = system: human epidermoid carcinoma cell line A-431 [ヒト類表皮癌細胞株A-431]; assay: MTT cell proliferation assay, A-431; assay type: cell-based; settings: for inhibition at 50 µg/mL: Homo sapiens, A-431, Example 7, 50 μg/ml, 24 h
[4] = system: human gastric cancer cell line NCI-N87 [ヒト胃癌細胞株NCI-N87]; assay: MTT cell proliferation assay, NCI-N87
[5] = system: human esophageal cancer cell line KYSE-30 [ヒト食道癌細胞株KYSE-30]; assay: MTT cell proliferation assay, KYSE-30; assay type: cell-based; settings: for inhibition at 58.5 µg/mL: low but significant
[6] = system: human melanoma cell line A-2058 [ヒト黒色腫細胞株A-2058]; assay: MTT cell proliferation assay, A-2058; assay type: cell-based
[7] = Homo sapiens, NCI-N87, read-out: antiproliferative activity

Structure (SMILES): O=c1[nH]cc(F)c(=O)[nH]1 [5-フルオロウラシル]
- antiproliferative activity (in words) ([1]; Example 9, 5-FU at 0.65 and 1.95 μg/ml): 低い且つ有意ではない活性
- antiproliferative activity (in words) ([1]; Example 10, 5-FU at 6.5, 19.5 and 58.5 μg/ml): 低い且つ有意ではない活性
- antiproliferative activity (in words) ([2]; Example 8, 5-FU at 0.195, 0.65 and 1.95 μg/ml): 低い且つ有意ではない活性
- antiproliferative activity (in words) ([3]; Example 7, 5-FU at 0.195, 0.65 and 1.95 μg/ml): 低い且つ有意ではない活性
- activity ranking of 5-FU concentrations (in words) ([4]; Example 11, 5-FU at 6.5 μg/ml (of 6.5, 19.5, 58.5 μg/ml)): 最も高い活性
- antiproliferative activity (in words) ([4]; Example 11, 5-FU at 6.5, 19.5 and 58.5 μg/ml): 低い且つ有意ではない活性
- activity ranking of 5-FU concentrations (in words) ([4]; Example 12, 5-FU at 6.5 μg/ml (of 6.5, 19.5, 58.5 μg/ml)): 最も高い活性
- antiproliferative activity (in words) ([4]; Example 12, 5-FU at 6.5, 19.5 and 58.5 μg/ml): 低い且つ有意ではない活性
- antiproliferative activity (in words) ([5]; Example 13, 5-FU at 6.5 and 19.5 μg/ml): 有意ではない活性
- antiproliferative activity (in words) ([5]; Example 14, 5-FU at 6.5 and 19.5 μg/ml): 有意ではない活性
- inhibition at 58.5 µg/mL ([5]; Homo sapiens, KYSE-30, Example 13, 5-FU at 58.5 μg/ml, read-out: antiproliferative activity): 17%
- inhibition at 58.5 µg/mL ([5]; Homo sapiens, KYSE-30, Example 14, 5-FU at 58.5 μg/ml, read-out: inhibition of proliferation): 16.8%
- antiproliferative activity (in words) ([6]; Example 6, 5-FU at 0.195, 0.65 and 1.95 μg/ml): 低い且つ有意ではない活性

Structure (SMILES): CCCCCCCCCCCCC(O)CCCCC(O)CC(=O)OCC(O)CO (stereo not drawn) [GLY-0Ac-1, 1-(3,8-ジヒドロキシエイコサノイル)グリセロール]
- inhibition at 50 µg/mL [2]: 38%
- inhibition at 50 µg/mL [3]: 81.5%

Structure (SMILES): CCCCCCCCCCCCCC(O)CCCCC(O)CC(=O)OCC(O)CO (stereo not drawn) [GLY-0Ac-2, 1-(3,8-ジヒドロキシヘンエイコサノイル)グリセロール]
- potency ranking (in words) ([6]; Example 6, 50 μg/ml, highly purified compounds): 最も強力

Structure (SMILES): CCCCCCCCCCCCCC(O)CCCCC(O)CC(=O)OCC(O)COC(C)=O (stereo not drawn) [GLY-1Ac-2, 1-(3,8-ジヒドロキシヘンエイコサノイル)3-アセトキシグリセロール]
- potency ranking (in words) ([1]; Example 9, first assay, 50 μg/ml): 最も強力

Structure (SMILES): CCCCCCCCCCCCC(O)CCCCC(O)CC(=O)OCC(O)COC(C)=O (stereo not drawn) [GLY-1Ac-1, 1-(3,8-ジヒドロキシエイコサノイル)3-アセトキシグリセロール]
- inhibition at 25 µg/mL ([1]; Homo sapiens, DLD-1, Example 9, second assay (retest), 25 μg/ml, read-out: antiproliferative activity): 13%
- inhibition at 50 µg/mL ([1]; Homo sapiens, DLD-1, Example 9, second assay (retest), 50 μg/ml, read-out: antiproliferative activity): 94%
- inhibition at 50 µg/mL [2]: 27.3%
- inhibition at 50 µg/mL [3]: 80.6%
- inhibition at 10 µg/mL [4, 7]: 39%
- inhibition at 25 µg/mL [4, 7]: 86%
- potency ranking (in words) ([5]; Example 13, 50 μg/ml): 最も強力
- inhibition at 10 µg/mL ([5]; Homo sapiens, KYSE-30, Example 13, 10 μg/ml, not statistically significant, read-out: antiproliferative activity): 9%
- inhibition at 25 µg/mL ([5]; Homo sapiens, KYSE-30, Example 13, 25 μg/ml, read-out: antiproliferative activity): 50%

Structure (SMILES): CCCCCCCCCCCCCCCC(=O)OCC(O)CO (stereo not drawn) [MGP, モノパルミチン酸グリセロール]
- inhibition at 50 µg/mL ([5]; Homo sapiens, KYSE-30, Example 13, 50 μg/ml, read-out: inhibition of proliferation / antiproliferative activity): 75%
